According to ChEMBL document CHEMBL1201862, “PubChem BioAssay data set” (2004):
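Dose response: 5 concentrations. Exposure: 48 h. Format: 96-well plates. Endpoint: linear interpolation; highest concentration if not reached. GI50 = concentration required for 50% inhibition of growth.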 Calls of active or inactive are those of the source. Cut-off read from the data, not from the text of the source: active = GI50 up to about 1.1 µM and inactive = higher.

Columns and labels:
Experiment in all cases: NCI tumour cell line growth inhibition, 48 h
786-0 = test system: 786-0
A549 = test system: A549
BT-549 = test system: BT-549
CAKI-1 = test system: CAKI-1
CCRF-CEM = test system: CCRF-CEM
HT-29 = test system: HT-29
KM12 = test system: KM12
MCF7 = test system: MCF7
MDA-MB-435 = test system: MDA-MB-435
MOLT-4 = test system: MOLT-4
NCI-H460 = test system: NCI-H460
NCI/ADR-RES = test system: NCI/ADR-RES
OVCAR-4 = test system: OVCAR-4
OVCAR-8 = test system: OVCAR-8
RXF 393 = test system: RXF 393
SF-539 = test system: SF-539
SK-MEL-2 = test system: SK-MEL-2
SN12C = test system: SN12C
T47D = test system: T47D

Structure (SMILES) | GI50 (786-0) | GI50 (A549) | GI50 (BT-549) | GI50 (CAKI-1) | GI50 (CCRF-CEM) | GI50 (HT-29) | GI50 (KM12) | GI50 (MCF7) | GI50 (MDA-MB-435) | GI50 (MOLT-4) | GI50 (NCI-H460) | GI50 (NCI/ADR-RES) | GI50 (OVCAR-4) | GI50 (OVCAR-8) | GI50 (RXF 393) | GI50 (SF-539) | GI50 (SK-MEL-2) | GI50 (SN12C) | GI50 (T47D)
COc1cc2cc(C(=O)Nc3cc4n(n3)-c3ccccc3C4)[nH]c2c(OC)c1OC | 8.39 µM (inactive) | 1.81 µM (inactive) | 1.19 µM (inactive) | 1.72 µM (inactive) | 1.38 µM (inactive) | 11.9 µM (inactive) | 1.85 µM (inactive) | 2.58 µM (inactive) | 1.44 µM (inactive) | 1.03 µM (active) | 1.64 µM (inactive) | 1.25 µM (inactive) | 1.24 µM (inactive) | 1.26 µM (inactive) | 30.1 µM (inactive) | 7.08 µM (inactive) | 2.3 µM (inactive) | 8.79 µM (inactive) | 0.883 µM (active)
O=S1(=O)N=C(SCc2ccccc2)N(c2ccccc2)c2ccncc21 | 40.8 µM (inactive) | 32.6 µM (inactive) | 25.5 µM (inactive) | 39.2 µM (inactive) | 28.5 µM (inactive) | 43.9 µM (inactive) | 41 µM (inactive) | 31.2 µM (inactive) | 41.5 µM (inactive) | 17.7 µM (inactive) | 28.8 µM (inactive) | 21.7 µM (inactive) | 23.3 µM (inactive) | 47.3 µM (inactive) | 26.6 µM (inactive) | 66.2 µM (inactive) | 34.3 µM (inactive) | 42.2 µM (inactive) | 29.2 µM (inactive)
OCCCCCNc1c2ccccc2nc2ccccc12 | 2.34 µM (inactive) | 2.65 µM (inactive) | 6.17 µM (inactive) | 2.91 µM (inactive) | 2.5 µM (inactive) | 1.44 µM (inactive) | 3.13 µM (inactive) | 2.33 µM (inactive) | 2.68 µM (inactive) | 2.4 µM (inactive) | 1.01 µM (active) | 7.46 µM (inactive) | 2.31 µM (inactive) | 2.34 µM (inactive) | 2.86 µM (inactive) | 2.75 µM (inactive) | 2.62 µM (inactive) | 2.54 µM (inactive) | 2.82 µM (inactive)
CC(=O)Nc1c2sscc-2n(C)c1=O [THIOLUTIN] | 1.52 µM (inactive) | 1.55 µM (inactive) | 1.43 µM (inactive) | 1.89 µM (inactive) | 0.282 µM (active) | 0.272 µM (active) | 1.32 µM (inactive) | 0.63 µM (active) | 1.01 µM (active) | 0.152 µM (active) | 0.537 µM (active) | 1.16 µM (inactive) | 1.56 µM (inactive) | 0.638 µM (active) | 1.71 µM (inactive) | 1.86 µM (inactive) | 1.88 µM (inactive) | 1.87 µM (inactive) | 1.58 µM (inactive)
N#Cc1ccccc1NC(=O)C(O)C(O)C(O)C(O)C=O (stereo not given) | > 100 µM (inactive) | > 100 µM (inactive) | > 100 µM (inactive) | > 100 µM (inactive) | > 100 µM (inactive) | > 100 µM (inactive) | > 100 µM (inactive) | > 100 µM (inactive) | > 100 µM (inactive) | > 100 µM (inactive) | > 100 µM (inactive) | > 100 µM (inactive) | > 100 µM (inactive) | > 100 µM (inactive) | > 100 µM (inactive) | > 100 µM (inactive) | > 100 µM (inactive) | > 100 µM (inactive) | > 100 µM (inactive)
CN(C)CCNC(=O)c1cc([N+](=O)[O-])cc2c1Oc1ccccc1O2 | 15.6 µM (inactive) | 13.5 µM (inactive) | 35.5 µM (inactive) | 15.6 µM (inactive) | 17.8 µM (inactive) | 17.3 µM (inactive) | 31 µM (inactive) | 23.1 µM (inactive) | 39.7 µM (inactive) | 3.94 µM (inactive) | 4.23 µM (inactive) | 23.9 µM (inactive) | 40.6 µM (inactive) | 14.4 µM (inactive) | 18.2 µM (inactive) | 24.8 µM (inactive) | 18.2 µM (inactive) | 25.7 µM (inactive) | 18.5 µM (inactive)
Nc1ccccc1CCCC(=O)O | > 100 µM (inactive) | > 100 µM (inactive) | > 100 µM (inactive) | > 100 µM (inactive) | > 100 µM (inactive) | > 100 µM (inactive) | > 100 µM (inactive) | > 100 µM (inactive) | > 100 µM (inactive) | > 100 µM (inactive) | > 100 µM (inactive) | > 100 µM (inactive) | > 100 µM (inactive) | > 100 µM (inactive) | > 100 µM (inactive) | > 100 µM (inactive) | > 100 µM (inactive) | > 100 µM (inactive) | > 100 µM (inactive)
c1ccc2c3ccn4ccc5c6ccccc6[nH]c5c4c-3nc2c1 | 0.163 µM (active) | 0.745 µM (active) | 1.77 µM (inactive) | 1.42 µM (inactive) | 0.31 µM (active) | 0.391 µM (active) | 0.908 µM (active) | 0.331 µM (active) | 1.45 µM (inactive) | 1.42 µM (inactive) | 0.498 µM (active) | 1.72 µM (inactive) | 0.394 µM (active) | 0.246 µM (active) | 1.32 µM (inactive) | 1.55 µM (inactive) | 1.72 µM (inactive) | 0.735 µM (active) | 1.15 µM (inactive)
Cc1ccc([N+](=O)[O-])cc1S(=O)(=O)Nc1ccc(C2=NOC(c3ccco3)C2)cc1 (stereo not given) | 18.2 µM (inactive) | 21.9 µM (inactive) | 18 µM (inactive) | 22.8 µM (inactive) | 18 µM (inactive) | 22.8 µM (inactive) | 11.8 µM (inactive) | 11.6 µM (inactive) | 3.03 µM (inactive) | 15.1 µM (inactive) | 18.5 µM (inactive) | 14.5 µM (inactive) | 14.9 µM (inactive) | 39.2 µM (inactive) | 8.73 µM (inactive) | 23 µM (inactive) | 16 µM (inactive) | 21.9 µM (inactive) | 22.8 µM (inactive)
CSC(SC)=C1CC(=O)Nc2ccccc2C1=O | 45.6 µM (inactive) | > 100 µM (inactive) | 40.3 µM (inactive) | 34.1 µM (inactive) | 19.7 µM (inactive) | > 100 µM (inactive) | > 100 µM (inactive) | 47.6 µM (inactive) | 44.8 µM (inactive) | 26.1 µM (inactive) | > 100 µM (inactive) | > 100 µM (inactive) | > 100 µM (inactive) | > 100 µM (inactive) | 18.6 µM (inactive) | 58.7 µM (inactive) | 53.3 µM (inactive) | 63.1 µM (inactive) | 29.9 µM (inactive)
CCC1C2Cc3ccc(O)cc3C1(CC)CCN2C (stereo not given) | > 100 µM (inactive) | > 100 µM (inactive) | > 100 µM (inactive) | > 100 µM (inactive) | > 100 µM (inactive) | > 100 µM (inactive) | > 100 µM (inactive) | > 100 µM (inactive) | > 100 µM (inactive) | > 100 µM (inactive) | > 100 µM (inactive) | > 100 µM (inactive) | > 100 µM (inactive) | > 100 µM (inactive) | > 100 µM (inactive) | > 100 µM (inactive) | > 100 µM (inactive) | > 100 µM (inactive) | > 100 µM (inactive)
COC1=CC(=O)C2=C(C1=O)[C@H]1CC[C@]3(C)[C@@H](O)CC[C@H]3[C@@H]1CC2 | 19.5 µM (inactive) | 18.4 µM (inactive) | 17.9 µM (inactive) | 25 µM (inactive) | 6.67 µM (inactive) | 4.71 µM (inactive) | 18.4 µM (inactive) | 17 µM (inactive) | 17.9 µM (inactive) | 3.48 µM (inactive) | 18.3 µM (inactive) | 27.5 µM (inactive) | 17.2 µM (inactive) | 17.8 µM (inactive) | 20.8 µM (inactive) | 16.9 µM (inactive) | 13.9 µM (inactive) | 17 µM (inactive) | 13.8 µM (inactive)
O=C1CSC2(CC(/C=C/c3ccccc3Br)=NN2c2cccc(S(=O)(=O)O)c2)N1c1nc2ccccc2s1 (stereo not given) | > 100 µM (inactive) | > 100 µM (inactive) | > 100 µM (inactive) | > 100 µM (inactive) | 30.5 µM (inactive) | > 100 µM (inactive) | 98.4 µM (inactive) | 50.4 µM (inactive) | 43.1 µM (inactive) | 52 µM (inactive) | > 100 µM (inactive) | > 100 µM (inactive) | 75.9 µM (inactive) | > 100 µM (inactive) | > 100 µM (inactive) | > 100 µM (inactive) | > 100 µM (inactive) | > 100 µM (inactive) | 27.6 µM (inactive)
O=C(CCN1CC2CCC(CC2)C1)c1cccs1 | 5.35 µM (inactive) | 23.9 µM (inactive) | 21.4 µM (inactive) | 18.7 µM (inactive) | 1.94 µM (inactive) | 24.5 µM (inactive) | 19.9 µM (inactive) | 8.59 µM (inactive) | 20.8 µM (inactive) | 3.32 µM (inactive) | 18.7 µM (inactive) | 24.6 µM (inactive) | 30.8 µM (inactive) | 18.7 µM (inactive) | 19 µM (inactive) | 20.9 µM (inactive) | 17.3 µM (inactive) | 18.1 µM (inactive) | 6.92 µM (inactive)
O=[N+]([O-])C(Cl)=C/C(=C(\Cl)SCc1ccccc1)[N+](=O)[O-] | 30.5 µM (inactive) | 24.8 µM (inactive) | 14.7 µM (inactive) | 18.1 µM (inactive) | 3.24 µM (inactive) | 24.7 µM (inactive) | 29.5 µM (inactive) | 38.2 µM (inactive) | 18.5 µM (inactive) | 17.7 µM (inactive) | 28.2 µM (inactive) | 36.7 µM (inactive) | 18.1 µM (inactive) | 23.5 µM (inactive) | 10.6 µM (inactive) | 21 µM (inactive) | 21.5 µM (inactive) | 18.2 µM (inactive) | 16.9 µM (inactive)
